Measurements taken from patent US6469058B1 (priority 1998, dated 2002).
Where “and” joins values, the source holds several entries; their conditions need not be identical. Equal values may be shown once. Read-outs that look alike come from different tables or passages of the source.

Key:
[1] = Route of elimination, radiolabeled drug in urine, monkeys; type: in vivo; conditions: within 24 hours
Protocol: (§1) Mass balance/route of elimination studies have not been conducted in humans. Animal studies indicate that the principal route of elimination is via renal excretion, with 80% and 62% of radiolabeled drug appearing in the urine of monkeys and rats, respectively, within 24 hours.

clinical = conditions: human, in vivo, po
[2] = human, in vivo
[3] = Phase 1 study of CI-994 in relapsed acute leukemia or other hematologic malignancy; type: in vivo
Protocol: An additional Phase 1 study was conducted in patients with relapsed acute leukemia or other hematologic malignancy using a once daily high-dose 5-day dosing schedule. The MTD was 135 mg/m^2/day. […] Other adverse events included nausea, vomiting, hypotension resulting from dehydration, hypocalcemia, headache, and in one patient each, acute pancreatitis, a pyramidal syndrome characterized by hyperreflexia and bilateral Babinski reflexes, and sepsis. Hematologic toxicities cannot be assessed in this patient population. Two patients with AML developed tumor lysis syndrome, resulting in one death. Transient decreases in peripheral white blood cell counts were noted.

[4] = test system: LC-12 squamous cell lung carcinoma tumor; conditions: for day on which significant tumor growth commenced (FIG. 1) / tumor growth substantially inhibited for (FIG. 2): controls Day 10
[5] = Route of elimination, radiolabeled drug in urine, rats; type: in vivo; conditions: within 24 hours
Protocol: as §1

[6] = Phase 1 dose-escalation study of CI-994 in solid tumor patients (MTD, pharmacokinetics, food effect)
[7] = CI-994 7.5 mg/kg/day alone, days 11-15, 18-22, 25-29
[8] = CI-994 15 mg/kg/day alone, days 11-15, 18-22, 25-29
[9] = CI-994 30 mg/kg/day alone, days 11-15, 18-22, 25-29
[10] = CI-994 60 mg/kg/day alone, days 11-15, 18-22, 25-29
[11] = Table 2 study, CI-994 7.5 mg/kg/day alone, days 11-15, 18-22, 25-29
[12] = Table 2 study, CI-994 15 mg/kg/day alone, days 11-15, 18-22, 25-29
[13] = Table 2 study, CI-994 30 mg/kg/day alone, days 11-15, 18-22, 25-29
[14] = Table 2 study, CI-994 60 mg/kg/day alone, days 11-15, 18-22, 25-29
[15] = CI-994 7.5 mg/kg/day alone, days 3-7, 10-14, 17-21
[16] = CI-994 7.5 mg/kg/day alone, days 17-21, 24-28, 31-35
[17] = CI-994 15 mg/kg/day alone, days 3-7, 10-14, 17-21
[18] = CI-994 15 mg/kg/day alone, days 17-21, 24-28, 31-35
[19] = CI-994 30 mg/kg/day alone, days 3-7, 10-14, 17-21
[20] = CI-994 30 mg/kg/day alone, days 17-21, 24-28, 31-35
[21] = CI-994 60 mg/kg/day alone, days 3-7, 10-14, 17-21
[22] = CI-994 60 mg/kg/day alone, days 17-21, 24-28, 31-35
[23] = Cisplatin 1 mg/kg/day alone, days 11-15 (first line, r11)
[24] = Cisplatin 1 mg/kg/day alone, days 11-15 (second line, r12)
[25] = Gemcitabine 80 mg/kg/day alone, days 11, 14, 17, 20
[26] = Gemcitabine 160 mg/kg/day alone, days 11, 14, 17, 20
[27] = Table 3 study, Xeloda 500 mg/kg/day alone, days 3-7, 10-14
[28] = Table 3 study, Xeloda 750 mg/kg/day alone, days 3-7, 10-14
[29] = Table 4 study, Xeloda 500 mg/kg/day alone, days 3-7, 10-14
[30] = Table 4 study, Xeloda 750 mg/kg/day alone, days 3-7, 10-14

**Q.** Which results are given for `CC(=O)Nc1ccc(C(=O)Nc2ccccc2N)cc1` [CI-994, 4-acetylamino-N-(2′-aminophenyl)-benzamide]?
**A.** radiolabeled drug appearing in the urine [1]: 80%; Clinical benefit (Phase 2, 8 mg/m^2 orally daily): Clinical benefit has been reported in patients with renal cell cancer; Objective responses (Phase 2, 8 mg/m^2 orally daily): Objective responses have been seen in patients with nonsmall cell lung cancer; dose-limiting toxicity (in vivo, po): Thrombocytopenia; half-life (clinical): ~15 h; cumulative toxicity [2]: no evidence of cumulative toxicity; dose-limiting toxicity [2]: thrombocytopenia or neutropenia; maximum plasma concentrations with increasing dose levels ([2]; po): less than dose-proportional; terminal elimination half-life and apparent clearance rate vs dose ([2]; po): independent of the dose administered; time to maximum blood level after ingestion ([2]; po): 1 to 2 h; dose-limiting toxicity ([3]; in vivo): acute CNS toxicity manifested as sedation and somnolence; MTD ([3]; patients with relapsed acute leukemia or other hematologic malignancy, once daily high-dose 5-day dosing schedule): 135 mg/m^2/day; % Weight Change [4, 7]: +4%; CR [4, 7]: 1/6; Net Log10 Kill [4, 7]: −1.2; PR [4, 7]: 0/6; T − C [4, 7]: 2.4 days; Toxic Deaths [4, 7]: 0/6; % Weight Change [4, 8]: +10%; CR [4, 8]: 0/6; Net Log10 Kill [4, 8]: −1.4; PR [4, 8]: 0/6; T − C [4, 8]: 0.4 days; Toxic Deaths [4, 8]: 0/6; % Weight Change [4, 9]: +1%; CR [4, 9]: 0/6; Net Log10 Kill [4, 9]: −1.3; PR [4, 9]: 0/6; T − C [4, 9]: 1.6 days; Toxic Deaths [4, 9]: 0/6; % Weight Change [4, 10]: −9%; CR [4, 10]: 3/6; Net Log10 Kill [4, 10]: −0.8; PR [4, 10]: 0/6; T − C [4, 10]: 7.8 days; Toxic Deaths [4, 10]: 0/6; % Weight Change [4, 11]: +9%; CR [4, 11]: 0/10; Net Log10 Kill [4, 11]: 0; PR [4, 11]: 0/10; T − C [4, 11]: -1.4 days; Toxic Deaths [4, 11]: 0/10; % Weight Change [4, 12]: +11%; CR [4, 12]: 0/10; Net Log10 Kill [4, 12]: 0; PR [4, 12]: 0/10; T − C [4, 12]: -1.9 days; Toxic Deaths [4, 12]: 0/10; % Weight Change [4, 13]: +11%; CR [4, 13]: 0/10; Net Log10 Kill [4, 13]: −0.8; PR [4, 13]: 0/10; T − C [4, 13]: 4.3 days; Toxic Deaths [4, 13]: 0/10; % Weight Change [4, 14]: +11%; Net Log10 Kill [4, 14]: −0.5; PR [4, 14]: 0/10; T − C [4, 14]: 8.7 days; Toxic Deaths [4, 14]: 0/10; CR ([4]; Table 2 study, CI-994 60 mg/kg/day alone, days 11-15, 18-22, 25-29, 60 mg/kg/day): two complete responses out of 10 and 2/10; day on which significant tumor growth commenced (FIG. 1) ([4]; oral 30 mg/kg, Days 10-14, 17-21, 24-28): ~24 days; day on which significant tumor growth commenced (FIG. 1) ([4]; oral 45 mg/kg, Days 10-14, 17-21, 24-28): ~24 days; tumor growth delayed for (FIG. 1) ([4]; oral 60 mg/kg, Days 10-14, 17-21, 24-28): 33 days; radiolabeled drug appearing in the urine [5]: 62%; % Tumor free (C26 colon tumor; [15]): 0/10; Net Log10 Kill (C26 colon tumor; [15]): −2.2; T − C (C26 colon tumor; [15]): 1.6 days; Toxic Deaths (C26 colon tumor; [15]): 0/10; % Tumor free (C26 colon tumor; [16]): 0/10; Net Log10 Kill (C26 colon tumor; [16]): −1.3; T − C (C26 colon tumor; [16]): 3.1 days; Toxic Deaths (C26 colon tumor; [16]): 0/10; % Tumor free (C26 colon tumor; [17]): 0/9; Net Log10 Kill (C26 colon tumor; [17]): −2.3; T − C (C26 colon tumor; [17]): 1.0 days; Toxic Deaths (C26 colon tumor; [17]): 0/9; % Tumor free (C26 colon tumor; [18]): 0/10; Net Log10 Kill (C26 colon tumor; [18]): −1.0; T − C (C26 colon tumor; [18]): 6.7 days; Toxic Deaths (C26 colon tumor; [18]): 0/10; % Tumor free (C26 colon tumor; [19]): 0/9; Net Log10 Kill (C26 colon tumor; [19]): −1.8; T − C (C26 colon tumor; [19]): 4.6 days; Toxic Deaths (C26 colon tumor; [19]): 0/9; % Tumor free (C26 colon tumor; [20]): 0/10; Net Log10 Kill (C26 colon tumor; [20]): −0.8; T − C (C26 colon tumor; [20]): 8.4 days; Toxic Deaths (C26 colon tumor; [20]): 1/10; % Tumor free (C26 colon tumor; [21]): 0/9; Net Log10 Kill (C26 colon tumor; [21]): −1.8; T − C (C26 colon tumor; [21]): 4.8 days; Toxic Deaths (C26 colon tumor; [21]): 0/9; % Tumor free (C26 colon tumor; [22]): 0/10; Net Log10 Kill (C26 colon tumor; [22]): −0.7; T − C (C26 colon tumor; [22]): 10.1 days; Toxic Deaths (C26 colon tumor; [22]): 0/10; MTD ([6]; 8 weeks of continuous daily therapy followed by a 2-week drug holiday): 8 mg/m^2/day; Responses ([6]; dose-escalation study): one partial response in a heavily pretreated patient with NSCLC and a minor response in one patient each with renal cell cancer and NSCLC; maximum tolerated dose (MTD) ([6]; duration of treatment 14 consecutive days): 15 mg/m^2/day

**Q.** For `N.N.[Cl][Pt][Cl]` [Cisplatin, cis-diaminodichloroplatinum, reference compound], which “% Weight Change” value [4, 23] is on record?
**A.** +13%

**Q.** And the CR [4, 23]?
**A.** 0/10

**Q.** And the “Net Log10 Kill” value [4, 23]?
**A.** −0.1

**Q.** And the PR [4, 23]?
**A.** 0/10

**Q.** And the “T − C” value [4, 23]?
**A.** 2.6 days

**Q.** And the “% Weight Change” value [4, 24]?
**A.** +12%

**Q.** What about the CR [4, 24] of the same compound?
**A.** 0/10

**Q.** And the “Net Log10 Kill” value [4, 24]?
**A.** −0.1

**Q.** What about the PR [4, 24] of the same compound?
**A.** 0/10

**Q.** And the “T − C” value [4, 24]?
**A.** 2.4 days

**Q.** What about the T-C ([4]; cisplatin alone at 2 mg/kg/day) of the same compound?
**A.** 2.4

**Q.** And the complete responses ([4]; cisplatin alone at 2 mg/kg/day)?
**A.** failed to cause any complete responses

**Q.** Which “tumor growth substantially inhibited for (FIG. 2)” value ([4]; 40 mg/kg IP on Days 10, 13, 16, 19) does the source give for `Nc1ccn([C@@H]2O[C@H](CO)[C@@H](O)C2(F)F)c(=O)n1` [Gemcitabine, 2′-deoxy-2′,2′-difluoro-cytidine, reference compound] here?
**A.** 25 days

**Q.** And the “tumor growth substantially inhibited for (FIG. 2)” value ([4]; 80 mg/kg IP on Days 10, 13, 16, 19)?
**A.** about 32 days

**Q.** What about the “% Weight Change” value [4, 25] of the same compound?
**A.** +1%

**Q.** What about the CR [4, 25] of the same compound?
**A.** 1/6

**Q.** What about the “Net Log10 Kill” value [4, 25] of the same compound?
**A.** 0.5

**Q.** What about the PR [4, 25] of the same compound?
**A.** 0/6

**Q.** What about the “T − C” value [4, 25] of the same compound?
**A.** 15.4 days

**Q.** What about the “Toxic Deaths” value [4, 25] of the same compound?
**A.** 0/6

**Q.** What about the “% Weight Change” value [4, 26] of the same compound?
**A.** −3%

**Q.** And the CR [4, 26]?
**A.** 0/6

**Q.** What about the “Net Log10 Kill” value [4, 26] of the same compound?
**A.** 1.2

**Q.** What about the PR [4, 26] of the same compound?
**A.** 1/6

**Q.** And the “T − C” value [4, 26]?
**A.** 24.0 days

**Q.** What about the “Toxic Deaths” value [4, 26] of the same compound?
**A.** 0/6

**Q.** Which “% Tumor free” value (C26 colon tumor; [27]) does the source give for `CCCCCOC(=O)Nc1nc(=O)n([C@@H]2O[C@H](C)[C@@H](O)[C@H]2O)cc1F` [Xeloda, 5′-deoxy-5-fluoro-N-[(pentyloxy)carbonyl]-cytidine, reference compound] here?
**A.** 2/10

**Q.** What about the “Net Log10 Kill” value (C26 colon tumor; [27]) of the same compound?
**A.** 0.2

**Q.** And the “T − C” value (C26 colon tumor; [27])?
**A.** 13.8 days

**Q.** And the “Toxic Deaths” value (C26 colon tumor; [27])?
**A.** 0/10

**Q.** What about the “% Tumor free” value (C26 colon tumor; [28]) of the same compound?
**A.** 3/10

**Q.** And the “Net Log10 Kill” value (C26 colon tumor; [28])?
**A.** 0.8

**Q.** What about the “T − C” value (C26 colon tumor; [28]) of the same compound?
**A.** 20.7 days

**Q.** And the “Toxic Deaths” value (C26 colon tumor; [28])?
**A.** 1/10

**Q.** And the “% Tumor free” value (C26 colon tumor; Table 3 study, Xeloda 750 mg/kg/day alone, days 3-7, 10-14, listed as capecitabine)?
**A.** 3 out of 10

**Q.** What about the “% Tumor free” value (C26 colon tumor; [29]) of the same compound?
**A.** 0/10

**Q.** And the “Net Log10 Kill” value (C26 colon tumor; [29])?
**A.** 0.6

**Q.** And the “T − C” value (C26 colon tumor; [29])?
**A.** 15.2 days

**Q.** What about the “Toxic Deaths” value (C26 colon tumor; [29]) of the same compound?
**A.** 0/10

**Q.** And the “% Tumor free” value (C26 colon tumor; [30])?
**A.** 1/10

**Q.** What about the “Net Log10 Kill” value (C26 colon tumor; [30]) of the same compound?
**A.** 1.3

**Q.** And the “T − C” value (C26 colon tumor; [30])?
**A.** 20.4 days

**Q.** What about the “Toxic Deaths” value (C26 colon tumor; [30]) of the same compound?
**A.** 0/10
